Values quoted from earlier work, collected in US20050182028A1, “Pharmaceutical formulation for oral delivery of bisphosphates” (priority 2004, published 2005).

Details: background statement

## O=P(O)(O)C(O)(Cc1cccnc1)P(=O)(O)O [risedronate, Risedronate]
  oral bioavailability: 0.63%
